From ChEMBL document CHEMBL4622980, “Peptide Inhibitors of Bacterial Protein Synthesis with Broad Spectrum and SbmA-Independent Bactericidal Activity against Clinical Pathogens” (J Med Chem, 2020)
In brackets after ≈: the same amount, converted by molar mass. Activity calls are given as the source filed them. The calls are words filed in the database; no cut-off is given here. Non-standard residues stand in square brackets, D forms with d. Residues, ends and D or L forms follow the SMILES beside them. ξ: configuration not given here. ξP = O=C(O)C1CCCN1

Key:
Escherichia coli [1] = test: Antibacterial activity against Escherichia coli BW25113 assessed as prevention visible bacterial growth incubated for 18 hrs; format: functional; settings: BW25113, 18 h
Escherichia coli [2] = test: Antibacterial activity against Escherichia coli ATCC 25922 assessed as prevention visible bacterial growth incubated for 18 hrs in presence of 10% (v/v) human serum in full MH medium; format: functional; settings: ATCC 25922, 18 h
Escherichia coli [3] = test: Antibacterial activity against Escherichia coli clinical isolates assessed as prevention visible bacterial growth incubated for 18 hrs; format: functional
[4] = Cytotoxicity in human MEC1 cells assessed as reduction in cell viability incubated for 20 hrs by MTT assay; format: cell-based
Escherichia coli [5] = test: Antibacterial activity against Escherichia coli ATCC 25922 assessed as prevention visible bacterial growth incubated for 18 hrs; format: functional; settings: ATCC 25922, 18 h
Escherichia coli [6] = test: Antibacterial activity against Escherichia coli BW25113 expressing delta sbmA mutation assessed as prevention visible bacterial growth incubated for 18 hrs; format: functional; settings: BW25113, 18 h
Escherichia coli [7] = test: Induction of membrane permeabilization in Escherichia coli BW25113 at 1 to 2 uM incubated for 30 mins by ONPG/beta-galactosidase assay; format: functional, organism-based
Pseudomonas aeruginosa [8] = test: Bactericidal activity against Pseudomonas aeruginosa ATCC 27853 assessed as prevention visible bacterial growth incubated for 18 hrs; format: functional; settings: ATCC 27853, 18 h
Pseudomonas aeruginosa [9] = test: Antibacterial activity against Pseudomonas aeruginosa ATCC 27853 assessed as prevention visible bacterial growth incubated for 18 hrs; format: functional; settings: ATCC 27853, 18 h
Escherichia coli [10] = test: Bactericidal activity against Escherichia coli BW25113 expressing delta sbmA mutation assessed as prevention visible bacterial growth incubated for 18 hrs; format: functional; settings: BW25113, 18 h
Acinetobacter baumannii [11] = test: Antibacterial activity against Acinetobacter baumannii ATCC 19606 assessed as prevention visible bacterial growth incubated for 18 hrs; format: functional; settings: ATCC 19606 = CIP 70.34 = JCM 6841, 18 h
Klebsiella pneumoniae [12] = test: Bactericidal activity against Klebsiella pneumoniae 700603 assessed as prevention visible bacterial growth incubated for 18 hrs; format: functional; settings: Klebsiella pneumoniae, 700603, 18 h
Staphylococcus aureus [13] = test: Bactericidal activity against Staphylococcus aureus ATCC 25923 assessed as prevention visible bacterial growth incubated for 18 hrs; format: functional; settings: ATCC 25923, 18 h
Klebsiella pneumoniae [14] = test: Antibacterial activity against Klebsiella pneumoniae 700603 assessed as prevention visible bacterial growth incubated for 18 hrs; format: functional; settings: Klebsiella pneumoniae, 700603, 18 h
Escherichia coli [15] = test: Bactericidal activity against Escherichia coli ATCC 25922 assessed as prevention visible bacterial growth incubated for 18 hrs; format: functional; settings: ATCC 25922, 18 h
Escherichia coli [16] = test: Bactericidal activity against Escherichia coli BW25113 assessed as prevention visible bacterial growth incubated for 18 hrs; format: functional; settings: BW25113, 18 h
Acinetobacter baumannii [17] = test: Bactericidal activity against Acinetobacter baumannii ATCC 19606 assessed as prevention visible bacterial growth incubated for 18 hrs; format: functional; settings: ATCC 19606 = CIP 70.34 = JCM 6841, 18 h
Staphylococcus aureus [18] = test: Antibacterial activity against Staphylococcus aureus ATCC 25923 assessed as prevention visible bacterial growth incubated for 18 hrs; format: functional; settings: ATCC 25923, 18 h
Escherichia coli [19] = test: Inhibition of in-vitro transcription/translation in Escherichia coli lysates at 1 uM incubated for 1 hr by luciferase reporter gene assay relative to control; format: functional

Compound	MIC99 (Escherichia coli [1]) [µM]	other results
CC(C)C[C@H](NC(=O)[C@H](CCCNC(=N)N)NC(=O)[C@@H]1CCCN1C(=O)[C@@H]1CCCN1C(=O)[C@H](CCCNC(=N)N)NC(=O)[C@@H]1CCCN1C(=O)[C@H](CCCNC(=N)N)NC(=O)C1CCCN1C(=O)[C@H](CCCNC(=N)N)NC(=O)[C@@H](N)CCCNC(=N)N)C(=O)N1CCC[C@H]1C(=O)N[C@@H](CCCNC(=N)N)C(=O)N1CCC[C@H]1C(=O)N[C@@H](CCCNC(=N)N)C(=O)N1CCC[C@H]1C(=O)N[C@@H](CCCNC(=N)N)C(=O)O (stereo not given in full) (H-RR[ξP]RPRPPRLPRPRPR-OH)	16 (≈ 33 µg/mL)	–
CC[C@H](C)[C@H](NC(=O)C1CCCN1C(=O)[C@@H](N)CCCNC(=N)N)C(=O)N[C@@H](CCCNC(=N)N)C(=O)N1CCC[C@H]1C(=O)N[C@@H](CCCNC(=N)N)C(=O)N1CCC[C@H]1C(=O)N1CCC[C@H]1C(=O)N[C@@H](CCCNC(=N)N)C(=O)N[C@@H](CC(C)C)C(=O)N1CCC[C@H]1C(=O)N[C@@H](CCCNC(=N)N)C(=O)N1CCC[C@H]1C(=O)N[C@@H](CCCNC(=N)N)C(=O)N1CCC[C@H]1C(=O)N[C@@H](CCCNC(=N)N)C(=O)O (stereo not given in full) (H-R[ξP]IRPRPPRLPRPRPR-OH)	64 (≈ 129 µg/mL)	–
H-ARIRPRPPRLPRPRPR-OH	4	–
H-ERIRPRPPRLPRPRPR-OH	64	–
H-FRIRPRPPRLPRPRPR-OH	4	–
H-GRIRPRPPRLPRPRPR-OH	8	–
H-IRPLPPRRPRRPRRRP-OH	64	–
H-PRIRPRPPRLPRPRPR-OH	8	–
H-RAIRPRPPRLPRPRPR-OH	16	–
H-REIRPRPPRLPRPRPR-OH	64	–
H-RFIRPRPPRLPRPRPR-OH	16	–
H-RGIRPRPPRLPRPRPR-OH	16	–
H-RRARPRPPRLPRPRPR-OH	16	–
H-RRERPRPPRLPRPRPR-OH	64	–
H-RRFRPRPPRLPRPRPR-OH	16	–
H-RRGRPRPPRLPRPRPR-OH	16	–
H-RRIAPRPPRLPRPRPR-OH	16	–
H-RRIEPRPPRLPRPRPR-OH	> 64	–
H-RRIFPRPPRLPRPRPR-OH	16	–
H-RRIGPRPPRLPRPRPR-OH	16	–
H-RRIPPRPPRLPRPRPR-OH	16	–
H-RRIRARPPRLPRPRPR-OH	8	–
H-RRIRERPPRLPRPRPR-OH	32	–

Compound	MIC99 (Escherichia coli [1]) [µM]	other results
H-RRIRFRPPRLPRPRPR-OH	8	–
H-RRIRGRPPRLPRPRPR-OH	8	–
H-RRIRPAPPRLPRPRPR-OH	16	–
H-RRIRPEPPRLPRPRPR-OH	> 64	–
H-RRIRPFPPRLPRPRPR-OH	16	–
H-RRIRPGPPRLPRPRPR-OH	32	–
H-RRIRPPPPRLPRPRPR-OH	32	–
H-RRIRPRAPRLPRPRPR-OH	16	–
H-RRIRPREPRLPRPRPR-OH	32	–
H-RRIRPRFPRLPRPRPR-OH	8	–
H-RRIRPRGPRLPRPRPR-OH	16	–
H-RRIRPRPARLPRPRPR-OH	16	–
H-RRIRPRPERLPRPRPR-OH	64	–
H-RRIRPRPFRLPRPRPR-OH	16	–
H-RRIRPRPGRLPRPRPR-OH	16	–
H-RRIRPRPPALPRPRPR-OH	64	–
H-RRIRPRPPELPRPRPR-OH	> 64	–
H-RRIRPRPPFLPRPRPR-OH	16	–
H-RRIRPRPPGLPRPRPR-OH	64	–
H-RRIRPRPPPLPRPRPR-OH	16	–
H-RRIRPRPPRAPRPRPR-OH	64	–
H-RRIRPRPPREPRPRPR-OH	> 64	–
H-RRIRPRPPRFPRPRPR-OH	32	–

Compound	MIC99 (Escherichia coli [1]) [µM]	other results
H-RRIRPRPPRGPRPRPR-OH	64	–
H-RRIRPRPPRLARPRPR-OH	32	–
H-RRIRPRPPRLERPRPR-OH	64	–
H-RRIRPRPPRLFRPRPR-OH	32	–
H-RRIRPRPPRLGRPRPR-OH	32	–
H-RRIRPRPPRLPAPRPR-OH	32	–
H-RRIRPRPPRLPEPRPR-OH	> 64	–
H-RRIRPRPPRLPFPRPR-OH	16	–
H-RRIRPRPPRLPGPRPR-OH	32	–
H-RRIRPRPPRLPPPRPR-OH	32	–
H-RRIRPRPPRLPRARPR-OH	16	–
H-RRIRPRPPRLPRERPR-OH	64	–
H-RRIRPRPPRLPRFRPR-OH	8	–
H-RRIRPRPPRLPRGRPR-OH	16	–
H-RRIRPRPPRLPRPAPR-OH	32	–
H-RRIRPRPPRLPRPEPR-OH	64	–
H-RRIRPRPPRLPRPFPR-OH	8	–
H-RRIRPRPPRLPRPGPR-OH	32	–
H-RRIRPRPPRLPRPPPR-OH	32	–
H-RRIRPRPPRLPRPRAR-OH	8	–
H-RRIRPRPPRLPRPRER-OH	32	–
H-RRIRPRPPRLPRPRFR-OH	8	–
H-RRIRPRPPRLPRPRGR-OH	16	–

Compound	MIC99 (Escherichia coli [1]) [µM]	other results
H-RRIRPRPPRLPRPRPA-OH	16	–
H-RRIRPRPPRLPRPRPE-OH	64	–
H-RRIRPRPPRLPRPRPF-OH	8	–
H-RRIRPRPPRLPRPRPG-OH	16	–
H-RRIRPRPPRLPRPRPP-OH	32	–
H-RRIRPRPPRLPRPRPR-OH	2 to 8	MIC (Escherichia coli [2]): 1 µM; MIC99 (Escherichia coli [3]): > 1 µM; CC50 at 20 h [4]: > 64 µM; MIC99 (Escherichia coli [5]): 1 µM; MIC99 (Escherichia coli [6]): 16 µM; Activity (Escherichia coli [7]): inactive; MBC (Pseudomonas aeruginosa [8]): > 64 µM; MIC99 (Pseudomonas aeruginosa [9]): > 64 µM; MBC (Escherichia coli [10]): 64 µM; MIC99 (Acinetobacter baumannii [11]): 32 µM; MBC (Klebsiella pneumoniae [12]): 64 µM; MBC (Staphylococcus aureus [13]): > 64 µM; MIC99 (Klebsiella pneumoniae [14]): 4 µM; MBC (Escherichia coli [15]): 2 µM; MBC (Escherichia coli [16]): 4 µM; MBC (Acinetobacter baumannii [17]): > 64 µM; MIC99 (Staphylococcus aureus [18]): > 64 µM
H-RRIRPRPPRLPRPRPS-OH	16	–
H-RRIRPRPPRLPRPRPW-OH	8	–
H-RRIRPRPPRLPRPRRR-OH	16	–
H-RRIRPRPPRLPRPRSR-OH	16	–
H-RRIRPRPPRLPRPSPR-OH	32	–
H-RRIRPRPPRLPRPWPR-OH	4	–
H-RRIRPRPPRLPRRRPR-OH	8	–
H-RRIRPRPPRLPRSRPR-OH	16	–
H-RRIRPRPPRLPRWRPR-OH	2	–
H-RRIRPRPPRLPSPRPR-OH	16	–
H-RRIRPRPPRLPWPRPR-OH	8	–
H-RRIRPRPPRLRRPRPR-OH	16	–
H-RRIRPRPPRLSRPRPR-OH	32	–
H-RRIRPRPPRLWRPRPR-OH	8	–
H-RRIRPRPPRPPRPRPR-OH	64	–
H-RRIRPRPPRRPRPRPR-OH	32	–
H-RRIRPRPPRSPRPRPR-OH	32	–

Compound	MIC99 (Escherichia coli [1]) [µM]	other results
H-RRIRPRPPRWPRPRPR-OH	16	–
H-RRIRPRPPSLPRPRPR-OH	32	–
H-RRIRPRPPWLPRPRPR-OH	4	–
H-RRIRPRPRRLPRPRPR-OH	16	–
H-RRIRPRPSRLPRPRPR-OH	16	–
H-RRIRPRPWRLPRPRPR-OH	4	–
H-RRIRPRRPRLPRPRPR-OH	8	–
H-RRIRPRSPRLPRPRPR-OH	16	–
H-RRIRPRWPRLPRPRPR-OH	4	–
H-RRIRPSPPRLPRPRPR-OH	32	–
H-RRIRPWPPRLPRPRPR-OH	8	–
H-RRIRRRPPRLPRPRPR-OH	8	–
H-RRIRSRPPRLPRPRPR-OH	16	–
H-RRIRWRPPRLPRPRPR-OH	4	–
H-RRISPRPPRLPRPRPR-OH	32	–
H-RRIWPRPPRLPRPRPR-OH	8	–
H-RRRRPRPPRLPRPRPR-OH	8	–
H-RRSRPRPPRLPRPRPR-OH	16	–
H-RRWRPRPPRLPRPRPR-OH	4	–
H-RSIRPRPPRLPRPRPR-OH	16	–
H-RWIRPRPPRLPRPRPR-OH	8	–
H-SRIRPRPPRLPRPRPR-OH	16	–
H-WRIRPRPPRLPRWRPR-OH	2	MIC (Escherichia coli [2]): 2 µM; MIC99 (Escherichia coli [3]): > 1 µM; CC50 at 20 h [4]: > 64 µM; MIC99 (Escherichia coli [5]): 1.5 µM; MIC99 (Escherichia coli [6]): 16 µM; Activity (Escherichia coli [7]): inactive; MBC (Pseudomonas aeruginosa [8]): > 64 µM; MIC99 (Pseudomonas aeruginosa [9]): > 64 µM; MBC (Escherichia coli [10]): 32 µM; inhibition (Escherichia coli [19]): Active; MIC99 (Acinetobacter baumannii [11]): 32 µM; MBC (Klebsiella pneumoniae [12]): 32 µM; MBC (Staphylococcus aureus [13]): > 64 µM; MIC99 (Klebsiella pneumoniae [14]): 8 µM; MBC (Escherichia coli [15]): 2 µM; MBC (Escherichia coli [16]): 4 µM; MBC (Acinetobacter baumannii [17]): 64 µM; MIC99 (Staphylococcus aureus [18]): > 64 µM
